The values below come from article PMC7838034 (Acta Pharmaceutica Sinica. B, 2020).

A value given as a limit tells only on which side of the number the result lay.

In assay [1] the target is PARP1 (Homo sapiens, UniProt P09874). Kind of assay: PARP1 inhibition assay. The assay is classed as biochemical. The conditions noted are these: tested in duplicate, average; for inhibition at 1 µM: read-out: Inhibition rate PARP1, 1 μmol/L; for inhibition at 10 µM: read-out: Inhibition rate PARP1, 10 μmol/L.
Assay [2] has as its target recombinant BRD4(BD1 + BD2) (Homo sapiens, UniProt O60885). Kind of assay: BRD4 inhibition assay. The assay is classed as binding. The conditions noted are these: tested in duplicate, average; for inhibition at 1 µM: read-out: Inhibition rate BRD4, 1 μmol/L; for inhibition at 10 µM: read-out: Inhibition rate BRD4, 10 μmol/L.
The test system of assay [3] is MDA-MB-468 cells. Kind of assay: Cell viability assay. In kind it is cell-based, human. The conditions noted are these: Homo sapiens, MDA-MB-468, 24 h, read-out: Anti-proliferative activity (IC50).

Sequence of PARP1 (P09874 whole entry): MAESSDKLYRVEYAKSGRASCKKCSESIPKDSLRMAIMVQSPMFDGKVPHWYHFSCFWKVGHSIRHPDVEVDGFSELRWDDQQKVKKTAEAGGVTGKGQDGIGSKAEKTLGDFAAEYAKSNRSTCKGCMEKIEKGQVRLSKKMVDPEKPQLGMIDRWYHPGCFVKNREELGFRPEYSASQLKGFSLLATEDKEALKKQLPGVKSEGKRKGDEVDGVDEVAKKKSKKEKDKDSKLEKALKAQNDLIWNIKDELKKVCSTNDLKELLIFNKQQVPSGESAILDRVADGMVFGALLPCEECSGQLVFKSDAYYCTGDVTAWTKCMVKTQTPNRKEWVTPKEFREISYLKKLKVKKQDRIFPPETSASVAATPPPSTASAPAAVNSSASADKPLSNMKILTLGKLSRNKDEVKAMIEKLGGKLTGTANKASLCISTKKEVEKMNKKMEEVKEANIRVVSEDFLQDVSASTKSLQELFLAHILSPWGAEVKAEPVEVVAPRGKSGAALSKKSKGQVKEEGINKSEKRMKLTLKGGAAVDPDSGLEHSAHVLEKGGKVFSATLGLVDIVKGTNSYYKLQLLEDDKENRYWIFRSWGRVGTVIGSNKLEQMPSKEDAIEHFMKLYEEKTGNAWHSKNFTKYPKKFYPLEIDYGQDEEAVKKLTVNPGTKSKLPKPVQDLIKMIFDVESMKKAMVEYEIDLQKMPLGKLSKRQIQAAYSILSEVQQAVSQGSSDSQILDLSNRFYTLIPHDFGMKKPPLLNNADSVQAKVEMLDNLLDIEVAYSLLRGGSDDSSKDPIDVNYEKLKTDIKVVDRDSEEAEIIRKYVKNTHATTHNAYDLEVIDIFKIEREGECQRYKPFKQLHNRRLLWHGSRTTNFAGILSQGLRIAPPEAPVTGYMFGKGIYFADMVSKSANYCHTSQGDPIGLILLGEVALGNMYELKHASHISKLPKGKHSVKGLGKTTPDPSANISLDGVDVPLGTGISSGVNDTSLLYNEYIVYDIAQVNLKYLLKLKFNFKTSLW

On to `COc1cc(OC)c2c(=O)[nH]c(-c3cc(Cl)ccc3OCCCOc3ccccc3C(N)=O)nc2c1` [Compound 19b, 2-(3-(4-Chloro-2-(5,7-dimethoxy-4-oxo-3,4-dihydroquinazolin-2-yl)phenoxy)propoxy)benzamide], for which, in assay [1], the inhibition at 1 µM turned out to be 35% and the inhibition at 10 µM amounted to 81%. Moreover, in assay [2], the inhibition at 1 µM was 3% and the inhibition at 10 µM came to 69%. In assay [3], the IC50 (commonly the midpoint of a concentration-inhibition curve) is 10.9 ± 0.5 µM.

`COc1cc(OC)c2c(=O)[nH]c(-c3cc(Cl)ccc3OCCCCOc3ccccc3C(N)=O)nc2c1` [Compound 19c, 2-(4-(4-Chloro-2-(5,7-dimethoxy-4-oxo-3,4-dihydroquinazolin-2-yl)phenoxy)butoxy)benzamide]: in assay [1], the inhibition at 1 µM turned out to be 29% and the inhibition at 10 µM came to 84%. Also, in assay [2], the inhibition at 1 µM worked out at 7% and the inhibition at 10 µM is 54%. Further, the IC50 in assay [3] stood at 7.4 ± 1.8 µM.

Turning to `COc1cc(OC)c2c(=O)[nH]c(-c3cc(Cl)ccc3OCCCCCOc3ccccc3C(N)=O)nc2c1` [Compound 19e, 2-((5-(4-Chloro-2-(5,7-dimethoxy-4-oxo-3,4-dihydroquinazolin-2-yl)phenoxy)pentyl)oxy)benzamide], the inhibition at 1 µM was 18% in assay [1] and 4% in assay [2]. The figures for the inhibition at 10 µM in assay [1] and in assay [2] were 71% and 55%, respectively. Also, the IC50 in assay [3] turned out to be 15.3 ± 3.6 µM.

Regarding `COc1cc(OC)c2c(=O)[nH]c(-c3cc(C)c(OCCOc4ccccc4C(N)=O)c(C)c3)nc2c1` [Compound 19f, 2-(2-(4-(5,7-Dimethoxy-4-oxo-3,4-dihydroquinazolin-2-yl)-2,6-dimethylphenoxy)ethoxy)benzamide], in assay [1], the inhibition at 1 µM stood at 40% and the inhibition at 10 µM is 79%. In assay [2], the inhibition at 1 µM amounted to 11% and the inhibition at 10 µM is 74%. Moreover, the IC50 in assay [3] was 8.4 ± 1.3 µM.

For the compound `COc1cc(OC)c2c(=O)[nH]c(-c3cc(OC)c(OCCOc4ccccc4C(N)=O)c(OC)c3)nc2c1` [Compound 19g, 2-(2-(4-(5,7-Dimethoxy-4-oxo-3,4-dihydroquinazolin-2-yl)-2,6-dimethoxyphenoxy)ethoxy)benzamide], the inhibition at 1 µM in assay [1] was determined as 25%; in assay [2] it was 15%. For the same compound, the values for the inhibition at 10 µM in assay [1] and in assay [2] were 70% and 72%, respectively. Moreover, the IC50 in assay [3] stood at 5.7 ± 2.1 µM.

For the compound `COc1cc(OC)c2c(=O)[nH]c(-c3ccc(OCCOc4ccccc4C(N)=O)c(F)c3)nc2c1` [Compound 19h, 2-(2-(4-(5,7-Dimethoxy-4-oxo-3,4-dihydroquinazolin-2-yl)-2-fluorophenoxy)ethoxy)benzamide], in assay [1], the inhibition at 1 µM amounted to 31% and the inhibition at 10 µM is 65%. Further, in assay [2], the inhibition at 1 µM worked out at 12% and the inhibition at 10 µM came to 62%. The IC50 in assay [3] amounted to 11.8 ± 3.4 µM.

For the compound `COc1cc(OC)c2c(=O)[nH]c(-c3cc(C)c(OCCOn4nnc5ccccc54)c(C)c3)nc2c1` [Compound 19i, 2-(4-(2-((1H-Benzo[d][1,2,3]triazol-1-yl)oxy)ethoxy)-3,5-dimethylphenyl)-5,7-dimethoxyquinazolin-4(3H)-one], the inhibition at 1 µM in assay [1] came out at 11%; in assay [2], 18%. Moreover, the inhibition at 10 µM in assay [1] was determined as 18%; in assay [2], 61%. The IC50 in assay [3] was above 30 µM.

`COc1cc(OC)c2c(=O)[nH]c(-c3cc(OC)c(OCCOn4nnc5ccccc54)c(OC)c3)nc2c1` [Compound 19j, 2-(4-(2-((1H-Benzo[d][1,2,3]triazol-1-yl)oxy)ethoxy)-3,5-dimethoxyphenyl)-5,7-dimethoxyquinazolin-4(3H)-one]: in assay [1], the inhibition at 1 µM was 6% and the inhibition at 10 µM amounted to 18%. Also, in assay [2], the inhibition at 1 µM was determined as 12% and the inhibition at 10 µM amounted to 64%. Further, the IC50 in assay [3] is above 30 µM.
